Data: ChEMBL document CHEMBL5500404, “Discovery and Development of NLRP3 Inhibitors Targeting the LRR Domain to Disrupt NLRP3-NEK7 Interaction for the Treatment of Rheumatoid Arthritis” (J Med Chem, 2024)
Active and inactive are the calls of the source. The rule behind the calls is not given here.

Assays:
[1] = MRT (0 to infinity) in Sprague-Dawley rat at 20 mg/kg, IG measured upto 1440 mins by LC-MS/MS analysis; type: ADME, organism-based; details: in vivo, po
[2] = Apparent clearance during terminal phase in Sprague-Dawley rat at 20 mg/kg, IG measured upto 1440 mins by LC-MS/MS analysis; type: ADME, organism-based; details: in vivo, po
[3] = MRT (0 to t) in Sprague-Dawley rat at 20 mg/kg, IG measured upto 1440 mins by LC-MS/MS analysis; type: ADME, organism-based; details: in vivo, po
[4] = Apparent volume of distribution during terminal phase in Sprague-Dawley rat at 20 mg/kg, IG measured upto 1440 mins by LC-MS/MS analysis; type: ADME, organism-based; details: in vivo, po, read-out: Vz/F
[5] = Half life in Sprague-Dawley rat at 20 mg/kg, IG measured upto 1440 mins by LC-MS/MS analysis; type: ADME, organism-based; details: in vivo, po
[6] = biological target: T1, Interferon-inducible protein AIM2 (Homo sapiens) (UniProt O14862); test: Inhibition of AIM2 inflammasome in poly(DA:DT)-induced human THP-M cells assessed as inhibition of IL-1beta level at 20 to 60 uM pretreated for 24 hrs followed by stimulated with LPS by ELISA; type: cell-based; details: dose 20-60 µM
T1 sequence (whole entry): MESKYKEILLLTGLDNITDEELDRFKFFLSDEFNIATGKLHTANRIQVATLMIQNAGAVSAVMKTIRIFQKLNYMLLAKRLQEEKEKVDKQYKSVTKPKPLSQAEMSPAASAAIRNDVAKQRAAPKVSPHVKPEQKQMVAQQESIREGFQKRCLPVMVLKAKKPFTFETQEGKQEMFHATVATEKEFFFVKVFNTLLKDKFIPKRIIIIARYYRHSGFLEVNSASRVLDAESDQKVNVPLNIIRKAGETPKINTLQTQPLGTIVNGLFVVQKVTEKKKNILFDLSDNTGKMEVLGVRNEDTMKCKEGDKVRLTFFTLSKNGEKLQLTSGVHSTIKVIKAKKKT

[7] = test system: THP-M; test: Effect on ASC (apoptosis-related speck-like protein containing a CARD) level in LPS/nigericin-induced human THP-M cells assessed as inhibition of pro-IL-1beta level at 20 to 60 uM pretreated for 24 hrs followed by stimulated with LPS for 3 hrs and ATP for 1 hr by Western blot analysis relative to control; type: functional, cell-based; details: dose 20-60 µM, time 28.0 hrs
[8] = test system: Rattus norvegicus; test: (§1) Anti-inflammatory activity against complete Freund's adjuvant (CFA)-induced arthritis rat model assessed as synovial hyperplasia in rat synovium from the left rear ankle at 20 to 80 mg/kg, ip treated after 17 days of CFA challenge measured after 18 days (day 17 to 34) by H and E staining based assay relative to model group; type: functional, organism-based; details: dose 20-80 mg/kg, time 18.0 day
[9] = biological target: NLR family CARD domain-containing protein 4 (Homo sapiens) (UniProt Q9NPP4); test: Inhibition of NLRC4 inflammasome in flagellin of Salmonella typhimurium-induced human THP-M cells assessed as inhibition of IL-1beta level at 20 to 60 uM pretreated for 24 hrs followed by stimulated with LPS by ELISA; type: cell-based; details: dose 20-60 µM
Sequence of NLR family CARD domain-containing protein 4 (Homo sapiens) (Q9NPP4 whole entry, the tested form may be a part): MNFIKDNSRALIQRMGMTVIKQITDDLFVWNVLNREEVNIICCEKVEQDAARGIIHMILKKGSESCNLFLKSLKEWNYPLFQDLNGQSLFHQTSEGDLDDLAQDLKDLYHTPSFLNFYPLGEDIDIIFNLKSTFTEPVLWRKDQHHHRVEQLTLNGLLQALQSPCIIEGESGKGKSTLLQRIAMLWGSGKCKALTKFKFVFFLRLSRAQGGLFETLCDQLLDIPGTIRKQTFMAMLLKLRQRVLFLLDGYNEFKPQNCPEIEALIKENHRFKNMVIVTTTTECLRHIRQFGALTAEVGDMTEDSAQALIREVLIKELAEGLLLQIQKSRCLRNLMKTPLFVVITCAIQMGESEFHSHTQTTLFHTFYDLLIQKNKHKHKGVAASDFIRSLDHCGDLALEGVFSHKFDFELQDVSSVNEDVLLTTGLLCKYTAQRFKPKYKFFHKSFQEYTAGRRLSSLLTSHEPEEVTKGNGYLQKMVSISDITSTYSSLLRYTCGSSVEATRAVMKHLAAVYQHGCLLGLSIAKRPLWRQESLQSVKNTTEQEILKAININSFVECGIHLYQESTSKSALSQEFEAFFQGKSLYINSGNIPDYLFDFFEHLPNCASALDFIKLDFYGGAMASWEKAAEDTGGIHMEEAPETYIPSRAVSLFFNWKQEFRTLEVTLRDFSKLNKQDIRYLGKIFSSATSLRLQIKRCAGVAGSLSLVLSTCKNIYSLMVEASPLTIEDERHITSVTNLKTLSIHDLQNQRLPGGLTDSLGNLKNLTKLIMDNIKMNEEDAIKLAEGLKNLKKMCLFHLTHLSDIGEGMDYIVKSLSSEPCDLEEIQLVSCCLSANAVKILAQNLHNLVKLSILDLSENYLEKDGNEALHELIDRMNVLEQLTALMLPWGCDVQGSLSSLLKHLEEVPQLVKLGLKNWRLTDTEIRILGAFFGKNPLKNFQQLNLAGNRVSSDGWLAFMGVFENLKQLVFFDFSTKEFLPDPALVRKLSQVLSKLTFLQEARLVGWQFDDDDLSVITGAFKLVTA

[10] = test system: Rattus norvegicus; test: Anti-inflammatory activity against complete Freund's adjuvant (CFA)-induced arthritis rat model assessed as recovery in degree of swelling in left hind paw at 20 to 80 mg/kg, ip treated after 17 days of CFA challenge measured after 18 days (day 17 to 34) relative to control; type: functional, organism-based; details: dose 20-80 mg/kg, time 18.0 day
[11] = test system: Rattus norvegicus; test: as §1, with “reduction in NLRP3” for “synovial hyperplasia”, “immunohistochemistry” for “H and E staining”; type: functional, organism-based; details: dose 20-80 mg/kg, time 18.0 day
[12] = Cytotoxicity against human THP-1 cells assessed as cellular proliferation inhibition measured after 48 hrs by MTT assay; type: toxicity, cell-based
[13] = MRT (0 to t) in Sprague-Dawley rat at 20 mg/kg, ip measured upto 720 mins by LC-MS/MS analysis; type: ADME, organism-based; details: in vivo
[14] = AUC (0 to infinity) in Sprague-Dawley rat at 20 mg/kg, ip measured upto 720 mins by LC-MS/MS analysis; type: ADME, organism-based; details: in vivo, 12 h
[15] = Half life in Sprague-Dawley rat at 20 mg/kg, ip measured upto 720 mins by LC-MS/MS analysis; type: ADME, organism-based; details: in vivo
[16] = Apparent volume of distribution during terminal phase in Sprague-Dawley rat at 20 mg/kg, ip measured upto 720 mins by LC-MS/MS analysis; type: ADME, organism-based; details: in vivo, read-out: Vz/F
[17] = test system: Rattus norvegicus; test: Anti-inflammatory activity against complete Freund's adjuvant (CFA)-induced arthritis rat model assessed as decrease in serum IL-1beta level at 20 to 80 mg/kg, ip treated after 17 days of CFA challenge measured after 18 days (day 17 to 34) by ELISA relative to model group; type: functional, organism-based; details: dose 20-80 mg/kg, time 18.0 day
[18] = test system: Rattus norvegicus; test: as §1, with “reduction in IL-1beta” for “synovial hyperplasia”, “immunohistochemistry” for “H and E staining”; type: functional, organism-based; details: dose 20-80 mg/kg, time 18.0 day
[19] = AUC (0 to t) in Sprague-Dawley rat at 20 mg/kg, ip measured upto 720 mins by LC-MS/MS analysis; type: ADME, organism-based; details: in vivo
[20] = test system: THP-M; test: Reduction of reactive oxygen species production in human THP-M cells pretreated for 24 hrs followed by stimulated with LPS for 3 hrs and ATP for 1 hr by Mitochondrial damage experiment; type: functional, cell-based; details: time 28.0 hrs
[21] = test system: Rattus norvegicus; test: Anti-inflammatory activity against complete Freund's adjuvant (CFA)-induced arthritis rat model assessed as reduction in body weight at 20 to 80 mg/kg, ip treated after 17 days of CFA challenge measured after 18 days (day 17 to 34) relative to control; type: functional, organism-based; details: dose 20-80 mg/kg, time 18.0 day
[22] = test system: Rattus norvegicus; test: as §1, with “reduction in NLRP3” for “synovial hyperplasia”, “immunofluorescence” for “H and E staining”; type: functional, organism-based; details: dose 20-80 mg/kg, time 18.0 day
[23] = test system: Rattus norvegicus; test: Anti-inflammatory activity against complete Freund's adjuvant (CFA)-induced arthritis rat model assessed as decrease in spleen size at 20 to 80 mg/kg, ip treated after 17 days of CFA challenge measured after 18 days (day 17 to 34) relative to model group; type: functional, organism-based; details: dose 20-80 mg/kg, time 18.0 day
[24] = test system: Rattus norvegicus; test: Anti-inflammatory activity against complete Freund's adjuvant (CFA)-induced arthritis rat model assessed as decrease in thymus index at 20 to 80 mg/kg, ip treated after 17 days of CFA challenge measured after 18 days (day 17 to 34) relative to model group; type: functional, organism-based; details: dose 20-80 mg/kg, time 18.0 day
[25] = test system: Rattus norvegicus; test: Anti-inflammatory activity against complete Freund's adjuvant (CFA)-induced arthritis rat model assessed as recovery in degree of swelling in right hind paw at 20 to 80 mg/kg, ip treated after 17 days of CFA challenge measured after 18 days (day 17 to 34) relative to control; type: functional, organism-based; details: dose 20-80 mg/kg, time 18.0 day
[26] = MRT (0 to infinity) in Sprague-Dawley rat at 20 mg/kg, ip measured upto 720 mins by LC-MS/MS analysis; type: ADME, organism-based; details: in vivo
[27] = test system: Rattus norvegicus; test: Anti-inflammatory activity against complete Freund's adjuvant (CFA)-induced arthritis rat model assessed as decrease in thymus size at 20 to 80 mg/kg, ip treated after 17 days of CFA challenge measured after 18 days (day 17 to 34) relative to model group; type: functional, organism-based; details: dose 20-80 mg/kg, time 18.0 day
[28] = Cmax in Sprague-Dawley rat at 20 mg/kg, IG measured upto 1440 mins by LC-MS/MS analysis; type: ADME, organism-based; details: in vivo, po

MRT inf [1]: 2.7 h
CL/F [2]: 410 mL/min/kg
MRT last at 24 h [3]: 2.31 h
Vd/F [4]: 73.4 L/kg
half-life [5]: 2.14 h
inhibition [6]: inactive
inhibition [9]: inactive
MRT last at 12 h [13]: 0.698 h
AUC [14]: 112685 ng·min/mL
half-life [15]: 0.735 h
Vd/F [16]: 2.8 L/kg
AUC(0-t) at 12 h [19]: 1860 ng·h/mL
MRT inf [26]: 0.742 h
Cmax [28]: 448 ng/mL
SMILES: COCCCNC(=O)c1ccc(Cn2c(SCC3CCCCC3)nc3ccncc32)cc1
inhibition [7]: inactive
Activity [8]: Active
Activity [10]: Active
Activity [11]: Active
IC50 at 48 h [12]: > 100 µM
Activity [17]: Active
Activity [18]: Active
Activity [20]: inactive
Activity [21]: Active
Activity [22]: Active
Activity [23]: Active
Activity [24]: Active
Activity [25]: Active
Activity [27]: Active
